In ChEMBL document CHEMBL3608228, “Bisacremines A-D, Dimeric Acremines Produced by a Soil-Derived Acremonium persicinum Strain” (J Nat Prod, 2015):
The source made the active and inactive calls. The rule behind the calls is not given here.

Experiments:
HepG2 = experiment: Cytotoxicity against human HepG2 cells assessed as cell growth inhibition after 72 hrs by MTT assay; type: functional, cell-based; conditions: HepG2, 72 h
HeLa = experiment: Cytotoxicity against human HeLa cells assessed as cell growth inhibition after 72 hrs by MTT assay; type: functional, cell-based
A549 = experiment: Cytotoxicity against human A549 cells assessed as cell growth inhibition after 72 hrs by MTT assay; type: functional, cell-based; conditions: A549, 72 h
Staphylococcus aureus = experiment: Antibacterial activity against Staphylococcus aureus; type: functional, organism-based

Row | SMILES | IC50 (HepG2) [µM] | IC50 (HeLa) [µM] | IC50 (A549) [µM] | Activity (Staphylococcus aureus)
1 | Cc1ccc(/C=C/[C@@]2(C)CC[C@](C)(/C=C/C3=C[C@H](O)[C@](C)(O)C[C@@H]3O)O2)cc1 | 31.1 | 9.3 | 41.3 | inactive
2 | Cc1ccc(/C=C/[C@]2(C)CC[C@](C)(/C=C/C3=C[C@H](O)[C@](C)(O)C[C@@H]3O)O2)cc1 | > 50 | 46.1 | > 50 | inactive
3 | Cc1ccc(/C=C/[C@@]2(C)CC[C@@](C)(/C=C/C3=C[C@H](O)[C@](C)(O)C[C@@H]3O)O2)cc1 | > 50 | 31.1 | > 50 | inactive
4 | Cc1ccc(/C=C/[C@]2(C)CC[C@@](C)(/C=C/C3=C[C@H](O)[C@](C)(O)C[C@@H]3O)O2)cc1 | > 50 | 10.7 | > 50 | inactive
